These results are taken from US7101868B2, “Substituted arylamine derivatives and methods of use” (Amgen Inc., priority 2001, dated 2006).

Bounds are passed on as bounds.

For this experiment, the system named is VEGF-stimulated HUVEC proliferation (Human Umbilical Vein Endothelial cells). In words: HUVEC Proliferation Assay. The experiment is classed as cell-based. The settings on record: VEGF 50 ng/mL final, 72 h incubation, CyQuant fluorescent dye, read-out: inhibited VEGF-stimulated HUVEC proliferation at a level (IC50). On the procedure: Human Umbilical Vein Endothelial cells are purchased from Clonetics, Inc., as cryopreserved cells harvested from a pool of donors. These cells, at passage 1, are thawed and expanded in EBM-2 complete medium, until passage 2 or 3. The cells are trypsinized, washed in DMEM+10% FBS+antibiotics, and spun at 1000 rpm for 10 min. Prior to centrifugation of the cells, a small amount is collected for a cell count. After centrifugation, the medium is discarded, and the cells are resuspended in the appropriate volume of DMEM+10% FBS+antibiotics to achieve a concentration of 3×10^5 cells/mL. Another cell count is performed to confirm the cell concentration. The cells are diluted to 3×10^4 cells/mL in DMEM+10% FBS+antibiotics, and 100 μL of cells are added to a 96-well plate. The cells are incubated at 37° C. for 22 h.
Prior to the completion of the incubation period, compound dilutions are prepared. Five-point, five-fold serial dilutions are prepared in DMSO, at concentrations 400-fold greater than the final concentrations desired. 2.5 μL of each compound dilution are diluted further in a total of 1 mL DMEM+10% FBS+antibiotics (400× dilution). Medium containing 0.25% DMSO is also prepared for the 0 μM compound sample. At the 22-hour timepoint, the medium is removed from the cells, and 100 μL of each compound dilution is added. The cells are incubated at 37° C. for 2-3 h.
During the compound pre-incubation period, the growth factors are diluted to the appropriate concentrations. Solutions of DMEM+10% FBS+antibiotics, containing either VEGF or bFGF at the following concentrations: 50, 10, 2, 0.4, 0.08, and 0 ng/mL are prepared. For the compound-treated cells, solutions of VEGF at 550 ng/mL or bFGF at 220 ng/mL for 50 ng/mL or 20 ng/mL final concentrations, respectively, are prepared since 10 μL of each will be added to the cells (110 μL final volume). At the appropriate time after adding the compounds, the growth factors are added. VEGF is added to one set of plates, while bFGF is added to another set of plates. For the growth factor control curves, the media on wells B4-G6 of plates 1 and 2 are replaced with media containing VEGF or bFGF at the varying concentrations (50-0 ng/mL). The cells are incubated at 37° C. for an additional 72 h.
At the completion of the 72 h incubation period, the medium is removed, and the cells are washed twice with PBS. After the second wash with PBS, the plates are tapped gently to remove excess PBS, and the cells are placed at −70° C. for at least 30 min. The cells are thawed and analyzed using the CyQuant fluorescent dye (Molecular Probes C-7026), following the manufacturer's recommendations. The plates are read on a Victor/Wallac 1420 workstation at 485 nm/530 nm (excitation/emission). Raw data are collected and analyzed using a 4-parameter fit equation in XLFit. IC50 values are then determined.

Take `CCC(C)c1ccc(NC(=O)c2cccnc2NCc2ccc(F)cc2)cc1` (centres unmarked) [Example 16, N-(4-sec-butylphenyl)-2-[(4-fluorobenzyl)amino]nicotinamide]: the IC50 was less than 50 nM.
On to `CC(C)(C)c1ccc(NC(=O)c2cccnc2NCc2ccc(F)cc2)cc1` [Example 17, N-(4-tert-Butylphenyl)-2-[(4-fluorobenzyl)amino]nicotinamide], for which the IC50 is less than 50 nM.
Turning to `CC(C)c1ccc(NC(=O)c2cccnc2NCc2ccc(F)cc2)cc1` [Example 20, (2-{[(4-Fluorophenyl)methyl]amino}(3-pyridyl))-N-[4-(methylethyl)phenyl]carboxamide], the IC50 is less than 50 nM.
Turning to `O=C(Nc1cccc(C(F)(F)F)c1)c1cccnc1NCc1ccc(F)cc1` [Example 21, (2-{[(4-Fluorophenyl)methyl]amino}(3-pyridyl))-N-[3-(trifluoromethyl)phenyl]carboxamide], the IC50 is less than 50 nM.
`O=C(Nc1cccc(C(F)(F)F)c1)c1cccnc1NCc1ccc(Br)cc1` [Example 25, (2-{[(4-Bromophenyl)methyl]amino}(3-pyridyl))-N-[3-(trifluoromethyl)phenyl]carboxamide]: the IC50 was less than 50 nM.
Regarding `O=C(Nc1cccc(C(F)(F)F)c1)c1cccnc1NCc1ccc(Cl)cc1` [Example 26, (2-{[(4-Chlorophenyl)methyl]amino}(3-pyridyl))-N-[3-(trifluoromethyl)phenyl]carboxamide], the IC50 is less than 50 nM.
In the case of `O=C(Nc1cccc(C(F)(F)F)c1)c1cccnc1NCc1ccc(F)cc1F` [Example 27, (2-{[(2,4-Difluorophenyl)methyl]amino}(3-pyridyl))-N-[3-(trifluoromethyl)phenyl]carboxamide], the IC50 was less than 50 nM.
On to `O=C(Nc1cccc(C(F)(F)F)c1)c1cccnc1NCc1ccc(F)c(F)c1` [Example 29, (2-{[(3,4-Difluorophenyl)methyl]amino}(3-pyridyl))-N-[3-(trifluoromethyl)phenyl]carboxamide], for which the IC50 was less than 50 nM.
Regarding `O=C(Nc1ccc(C(F)(F)F)cc1)c1cccnc1NCc1ccc(F)cc1` [Example 34, (2-{[(4-Fluorophenyl)methyl]amino}(3-pyridyl))-N-(4-(trifluoromethyl)phenyl]carboxamide], the IC50 is less than 50 nM.
`CN(C)CCCc1cc(NC(=O)c2cccnc2NCc2ccc(F)cc2)cc(C(F)(F)F)c1` [Example 35, N-{3-[3-(Dimethylamino)propyl]-5-(trifluoromethyl)phenyl}(2-{[(4-fluorophenyl)methyl]amino}(3-pyridyl))carboxamide]: the IC50 was less than 50 nM.
Take `CN1CC=C(c2cc(NC(=O)c3cccnc3NCc3ccc(F)cc3)ccc2C(C)(C)C)CC1` [Example 39]: the IC50 is less than 50 nM.
Then `O=C(Nc1cccc(C(F)(F)F)c1)c1cccnc1NCc1ccc(F)c(C#CCN2CCOCC2)c1` [Example 40, [2-({[4-Fluoro-3-(3-morpholin-4-ylprop-1-ynyl)phenyl]methyl}amino)(3-pyridyl)]-N-[3-(trifluoromethyl)phenyl]carboxamide], with less than 50 nM.
With `O=C(Nc1ccc(Oc2ccccc2)cc1)c1cccnc1NCc1ccc2c(c1)OCO2` [Example 41, {2-[(2H-Benzo[d]1,3-dioxol-5-ylmethyl)amino](3-pyridyl)}-N-(4-phenoxyphenyl)carboxamide], the IC50 is less than 50 nM.
Take `O=C(Nc1ccc(C(F)(F)F)c(OCCN2CCCC2)c1)c1cccnc1NCc1ccc(F)cc1` [Example 42, 2-(4-Fluoro-benzylamino)-N-[3-(2-pyrrolidin-1-yl-ethoxy)-4-trifluoromethyl-phenyl]-nicotinamide]: the IC50 was less than 50 nM.
Consider `CN1CCC(N2CC(C)(C)c3ccc(NC(=O)c4cccnc4NCc4ccc(F)cc4)cc32)CC1` [Example 45, N-[3,3-Dimethyl-1-(1-methyl-piperidin-4-yl)-2,3-dihydro-1H-indol-6-yl]-2-(4-fluoro-benzylamino)-nicotinamide], for which the IC50 was less than 50 nM.
In the case of `CN(C)CC(=O)N1CC(C)(C)c2ccc(NC(=O)c3cccnc3NCc3ccc(F)cc3)cc21` [Example 46, N-[1-(2-Dimethylamino-acetyl)-3,3-dimethyl-2,3-dihydro-1H-indol-6-yl]-2-(4-fluoro-benzylamino)-nicotinamide], the IC50 is less than 50 nM.
For `CC(=O)N1CC(C)(C)Oc2ccc(NC(=O)c3cccnc3NCc3ccc(F)cc3)cc21` [Example 52, N-(4-Acetyl-2,2-dimethyl-3,4-dihydro-2H-benzo[1,4]oxazin-6-yl)-2-(4-fluoro-benzylamino)-nicotinamide] the value was less than 50 nM.
`O=C(Nc1ccc(C(F)(F)C(F)(F)F)c(OC[C@H]2CCCN2)c1)c1cccnc1NCc1ccc(F)cc1` [Example 54, (R) 2-(4-Fluoro-benzylamino)-N-[3-(pyrrolidin-2-ylmethoxy)-4-pentafluoroethyl-phenyl]-nicotinamide]: the IC50 was less than 50 nM.
For the molecule `O=C(Nc1cc(OC[C@H]2CCCN2)cc(C(F)(F)F)c1)c1cccnc1NCc1ccc(F)cc1` [Example 55, (R) 2-(4-Fluoro-benzylamino)-N-[3-(pyrrolidin-2-ylmethoxy)-5-trifluoromethyl-phenyl]-nicotinamide], the IC50 was less than 50 nM.
For `CC(C)(C)c1ccc(NC(=O)c2cccnc2NCc2ccc(F)cc2)cc1OCC1CCNCC1` [Example 56, N-[4-tert-Butyl-3-(piperidin-4-ylmethoxy)-phenyl]-2-(4-fluoro-benzylamino)-nicotinamide] the value was less than 50 nM; for `CC(C)(C)c1ccc(NC(=O)c2cccnc2NCc2ccc(F)cc2)cc1OC[C@H]1CCCN1` [Example 57, (R) N-[4-tert-Butyl-3-(pyrrolidin-2-ylmethoxy)-phenyl]-2-(4-fluoro-benzylamino)-nicotinamide], less than 50 nM; for `CC1(C)CNCc2cc(NC(=O)c3cccnc3NCc3ccc(F)cc3)ccc21` [Example 58, N-(4,4-Dimethyl-1,2,3,4-tetrahydro-isoquinolin-7-yl)-2-(4-fluoro-benzylamino)-nicotinamide], less than 50 nM.
With `CC1(C)CN(C(=O)CN)c2cc(NC(=O)c3cccnc3NCc3ccc(F)cc3)ccc21` [Example 59, N-[1-(2-Amino-acetyl)-3,3-dimethyl-2,3-dihydro-1H-indol-6-yl]-2-(4-fluoro-benzylamino)-nicotinamide], the IC50 is less than 50 nM.
Take `CC1(C)CN(C2CCNCC2)c2cc(NC(=O)c3cccnc3NCc3ccc(F)cc3)ccc21` [Example 60, N-(3,3-Dimethyl-1-piperidin-4-yl-2,3-dihydro-1H-indol-6-yl)-2-(4-fluoro-benzylamino)-nicotinamide]: the IC50 was less than 50 nM.
On to `O=C(Nc1cc(OCC2CCNCC2)cc(C(F)(F)F)c1)c1cccnc1NCc1ccc(F)cc1` [Example 61, 2-(4-Fluoro-benzylamino)-N-[3-(piperidin-4-ylmethoxy)-5-trifluoromethyl-phenyl]-nicotinamide], for which the IC50 was less than 50 nM.
As for `CC1(C)CNc2cc(NC(=O)c3cccnc3NCc3ccc(F)cc3)ccc2O1` [Example 62, N-(2,2-Dimethyl-3,4-dihydro-2H-benzo[1,4]oxazin-6-yl)-2-(4-fluoro-benzylamino)-nicotinamide], the IC50 was less than 50 nM.
For `CN1CCC[C@H]1COc1cc(NC(=O)c2cccnc2NCc2ccc(F)cc2)cc(C(F)(F)F)c1` [Example 63, (S)-2-(4-Fluoro-benzylamino)-N-[3-(1-methyl-pyrrolidin-2-ylmethoxy)-5-trifluoromethyl-phenyl]-nicotinamide] the value was less than 50 nM; for `CN1CCC(CN2CC(C)(C)c3ccc(NC(=O)c4cccnc4NCc4ccc(F)cc4)cc32)CC1` [Example 64, N-[3,3-Dimethyl-1-(1-methyl-piperidin-4-ylmethyl)-2,3-dihydro-1H-indol-6-yl]-2-(4-fluoro-benzylamino)-nicotinamide], less than 50 nM; for `CN1CCC(C(C)(C)c2ccc(NC(=O)c3cccnc3NCc3ccc(F)cc3)cc2)CC1` [Example 65, 2-(4-Fluoro-benzylamino)-N-{4-[1-methyl-1-(1-methyl-piperidin-4-yl)-ethyl]-phenyl}-nicotinamide], less than 50 nM.
